# Source: patent US20190254997A1, “METHODS FOR INDUCING STEREOCILIA ON HAIR CELLS” (The Regents of the University of California, priority 2016, published 2019)
# Assays:
# [1] = system: myosin7A-positive cells (HCs) in utricular explants; assay: Effect of Notch inhibition (DAPT) on GM-damaged utricular explants, myosin7A immunoreactivity; format: cell-based, CD-1 mice; details: for number of myosin7A-positive cells: with or without 20 μM DAPT for 2 days then 5 days without, mean ± SD
# Experimental: Effect of notch inhibition. To induce HC-like cells, two days after GM damage, we cultured utricular explants with 20 μM DAPT (N-[N-[(3,5-Difluoropheny)acetyl]-L-alanyl]L-phenylglycinetert-butyl: C23H26F2N2O4, Abcam) for 2 days, followed by 5 days without DAPT. DAPT is a prototypical y-secretase inhibitor. Since Notch signaling requires γ-secretase activity, DAPT is a potent inhibitor of this signaling pathway. As a control, we cultured GM-damaged utricles for 7 days without DAPT. Explants were analyzed for myosin7A immunoreactivity both as whole mounts and as tissue sections
# Histochemical analysis. At the end of the culture period, explants were fixed for 15 min in 4% paraformaldehyde and permeabilized with 5% Triton X-100 in phosphate-buffered saline (PBS) after 3×PBS wash. Explants were then exposed to a blocking solution containing 10% bovine serum albumin (BSA), and then incubated with anti-myosin7A rabbit polyclonal antibodies (25-6790; Proteus Bioscience Inc., Ramona, Calif., USA; 1:500). Alexa-Fluor 568 goat anti-rabbit IgG (A-11011, Invitrogen, Calif., USA; 1:100) was used as the secondary antibody. At the same time, specimens were incubated in FITC-conjugated or Alexa-Fluor 633 phalloidin (1:100; Invitrogen) to label F-actin for 1 hr. Finally, the explants were incubated with DAPI for 15 min. Specimens were examined using a Leica TCS-SP2 laser-scanning confocal microscope (Leica Microsystems Inc., Wetzlar, Germany). Cells with phalloidin-positive surface structures were counted in randomly selected areas and averaged in each sample for each condition, using an evaluation reticule 100 μm on each side. Results from 6-7 samples were evaluated, based on initial observations of variability.
# [2] = system: HC stereociliary bundles and HC bodies of utricular maculae; assay: Gentamicin damage to HC stereociliary bundles and HC bodies in utricular macula explants; format: cell-based, CD-1 mice; details: 1mM GM for 48 hrs, utricular maculae in vitro, followed to 10 days
# Excerpt: Dissection of vestibular maculae and tissue culture. Postnatal mice were decapitated under deep anesthesia and their temporal bones were removed. Utricula maculae were dissected from the surrounding tissue in 0.01M phosphate-buffered saline, pH 7.4. The otoconial membranes were gently removed with a fine needle. Explants of utricular sensory epithelia were placed intact on type I collagen-coated cover glasses (Iwaki, Tokyo, Japan) and maintained in 24-well culture plates (Iwaki) in Dulbecco's modified Eagle's medium (Invitrogen, Eugene, Oreg., USA), supplemented with 6 g/l glucose (Wako Pure Chemicals, Osaka, Japan) and 1.5 g/l penicillin G (Wako Pure Chemicals), at 37° C. in a humidified atmosphere of 95% air and 5% CO2 for 24 hrs.
# In order to examine the toxicity of gentamicin (GM) to HC stereociliary bundles and HC bodies, we damaged explants with 1mM GM (Nakarai, Japan) for 48 hrs and then maintained the explants in culture without GM for 10 days. After fixation with 4% paraformaldehyde and histochemistry (see below), we counted stereociliary bundles and HC bodies. Bundles and HC bodies were measured using a 10×40 eyepiece reticule. Each square of the reticule was 100 μm on a side. Surviving hair bundles and HC bodies were counted in each of three randomly selected fields including both striolar and extrastriolar regions, and the values obtained were averaged. […]
Compound,number of myosin7A-positive cells [1],number of HC bodies after GM treatment [2],stereociliary bundles after GM treatment [2],stereociliary bundles in DAPT-treated explants ([1]; 20 μM DAPT)
gentamicin [GM],25.4±5.5 /10000 μm2,dramatically decreased,almost entirely lost,–
"C[C@H](NC(=O)Cc1cc(F)cc(F)c1)C(=O)N[C@H](C(=O)OC(C)(C)C)c1ccccc1 [DAPT, N-[N-[(3,5-Difluoropheny)acetyl]-L-alanyl]L-phenylglycinetert-butyl]",38.5±8.64 /10000 μm2,–,–,remained very sparse
